Reference: patent publication US20130084287A1, “DIAGNOSTIC MARKERS” (GENENTECH, INC., priority 2011, published 2013)
Where two headings read alike, the source gives them in different places.

Legend:
Type in all cases: cell-based
NSCLC cell lines [1] = experiment: erlotinib IC50 determination, Celltiter-Glo Luminescent Cell Viability Assay; details: for IC50: read-out: erlotinib sensitivity (IC50 class)
Method: For erlotinib IC50 determination, cells were plated in quadruplicate at 3×10^2 cells per well in 384-well plates in RPMI containing 0.5% FBS (assay medium) and incubated overnight. 24 hours later, cells were treated with assay medium containing 3 nM TGFα and erlotinib at a dose range of 10 μM-1 pM final concentration. After 72 hrs, cell viability was measured using the Celltiter-Glo Luminescent Cell Viability Assay (Promega). The concentration of erlotinib resulting in 50% inhibition of cell viability was calculated from a 4-parameter curve analysis and was determined from a minimum of two experiments.

NSCLC cell lines [2] = experiment: quantitative PCR of gene expression in 5-aza-dC-treated vs DMSO-treated NSCLC cell lines
Method: (§1) Cells were grown in RPMI 1640 supplemented with 10% fetal bovine serum and 2 mM L-Glutamine Cells were seeded on day 0 at 4000-9000 cells/cm2 and dosed with 1 μM 5-aza-2′-deoxycytidine (5-aza-dC) (SIGMA-ALDRICH Cat No. A3656) or DMSO control (Cat No. D2650) on days 1, 3, and 5. On day 6 cells were washed once in cold PBS and harvested by scraping in Trizol (Invitrogen, Cat No 15596018) and extracted for RNA or flash frozen for later RNA extraction. For induction of EMT, cells were plated at 20000-50000 cells/10 cm2 in complete medium and supplemented with 2 ng/mL human transforming growth factor beta 1 (TGFβ1) (R&D Systems, Cat No 100-B/CF) or PBS control. Media and TGFβ1 were replaced every 3 days, and RNA was extracted at 4-5 weeks following TGFβ1 induction of EMT. Gene expression changes were assessed using Taqman assays for the 20-gene EMT panel (FIG. 1).
To evaluate the role of methylation in regulating expression of the genes associated with select DMRs, quantitative PCR was carried out in a panel of 34 5-aza-2′-deoxycytidine (5-aza-dC) and dimethyl sulfoxide-treated NSCLC cell lines. […] From this group of genes, CLDN7 was selected as a representative marker of EMT and its methylation status was quantified by pyrosequencing in an extended panel of 42 cell lines.
In FIG. 5A, quantitative methylation was determined at 7 CpG sites by PyroMark analysis software using the equation: % methylation=(C peak height×100/C peak height+T peak height). Data are represented as the mean±SD percentage of methylation at 7 CpG sites. In FIG. 5B, relative expression of CLDN7 mRNA was determined using a standard ΔCt method in 42 (n=20 epithelial-like, 19 mesenchymal-like, 3 intermediate) DMSO-treated and 5-aza-dC-treated NSCLC cell lines. Expression values were calculated as a fold change in 5-aza-dC-treated relative to DMSO-treated control cells. Data are normalized to the housekeeping gene GAPDH and represented as the mean of 2 replicates. DMSO, dimethyl sulfoxide; GAPDH, glyceraldehyde-3-phosphate dehydrogenase.

NSCLC cell lines [3] = experiment: TGFβ1 induction of EMT, 20-gene EMT expression panel and morphology; details: 2 cell lines, 2 ng/mL TGFβ1
Method: as §1
2 μl of total RNA was reverse-transcribed to cDNA and pre-amplified in a single reaction using Superscript III/Platinum Taq (Invitrogen) and Pre-amplification reaction mix (Invitrogen). 20 Taqman primer/probe sets selected for the EMT expression panel (FIG. 1) were included in the pre-amplification reaction at a final dilution of 0.05× original Taqman assay concentration (Applied Biosystems). […]
Pre-amplified cDNA was diluted 1.94-fold and then amplified using Taqman Universal PCR MasterMix (Applied Biosystems) on the BioMark BMK-M-96.96 platform (Fluidigm) according to the manufacturer's instructions. […] Two custom-designed reference genes that were previously evaluated for their expression stability across multiple cell lines, fresh-frozen tissue samples, and FFPE tissue samples, AL-1377271 and VPS-33B, were included in the expression panel. A mean of the Ct values for the two reference genes was calculated for each sample, and expression levels of EMT target genes were determined using the delta Ct (dCt) method as follows: Mean Ct (Target Gene)−Mean Ct (Reference Genes). […]

For `C#Cc1cccc(Nc2ncnc3cc(OCCOC)c(OCCOC)cc23)c1` [erlotinib, [6,7-bis(2-methoxyethoxy)-4-quinazolin-4-yl]-(3-ethynylphenyl) amine], the IC50 (NSCLC cell lines [1]; 6 EGFR-mutant NSCLC cell lines) was no more than 2000 nM, the IC50 (NSCLC cell lines [1]; 72 h, RERF-LC-MS cell line, 72 hrs, 3 nM TGFα) was no more than 2000 nM and the erlotinib sensitivity (NSCLC cell lines [1]; H1993, MET amplification) was “resistance”. The IC50 (NSCLC cell lines [1]; Homo sapiens, NCI-H838, 72 h, H838 cell line, 72 hrs, 3 nM TGFα) was no more than 2000 nM, the IC50 (NSCLC cell lines [1]; Homo sapiens, NCI-H2030, 72 h, H2030 cell line, 72 hrs, 3 nM TGFα) was no more than 2000 nM and the IC50 (NSCLC cell lines [1]; Homo sapiens, SK-MES-1, 72 h, SK-MES-1 cell line, 72 hrs, 3 nM TGFα) was no more than 2000 nM. For the same molecule, the erlotinib sensitivity (NSCLC cell lines [1]; epithelial-like line H1975, T790M mutation in EGFR) was “resistance” and the IC50 (NSCLC cell lines [1]; nearly all mesenchymal-like lines) was no less than 8000 nM.

With `Nc1ncn([C@H]2C[C@H](O)[C@@H](CO)O2)c(=O)n1` [5-aza-dC, 5-aza-2′-deoxycytidine] the “induction of CLDN7 expression” value (NSCLC cell lines [2]; majority of the epithelial-like cell lines, 1 μM 5-aza-dC) was “not induced further”, the “induction of GRHL2, ESRP1, and CLDN7 transcripts” value (NSCLC cell lines [2]; mesenchymal-like versus epithelial-like lines, panel of 34 NSCLC cell lines) was “significant induction” and the “induction of CLDN7 expression, fold change in 5-aza-dC-treated relative to DMSO-treated control cells” value (NSCLC cell lines [2]; nearly all mesenchymal-like lines, 1 μM 5-aza-dC, normalized to GAPDH) was greater than 10 fold.

With “TGFβ1: human transforming growth factor beta 1 (R&D Systems), used for induction of EMT” the morphologic changes (NSCLC cell lines [3]) was “induced morphologic changes associated with an EMT”, the “expression of genes associated with a mesenchymal phenotype” value (NSCLC cell lines [3]; 20-gene EMT panel) was “upregulated” and the “expression of genes associated with an epithelial phenotype” value (NSCLC cell lines [3]; 20-gene EMT panel) was “downregulated”.
